A value given as a limit tells only on which side of the number the result lay.

The values below come from patent US10493070B2 (priority 2016, dated 2019).

The first test deals with recombinant NL4-3 virus (NLRluc, Renilla luciferase in nef, Gag P373S). The test can be described thus: HIV cell culture assay (Renilla luciferase reporter virus in MT-2 cells). The format is cell-based. The note with it: Renilla, NL43, read-out: 10% FBS EC50, 10% FBS, class symbols A/B/C. As for the experimental part: MT-2 cells and 293T cells were obtained from the NIH AIDS Research and Reference Reagent Program. MT-2 cells were propagated in RPMI 1640 media supplemented with 10% heat inactivated fetal bovine serum, […]. The 293T cells were propagated in DMEM media supplemented with 10% heat inactivated fetal bovine serum (FBS), 100 units/ml penicillin G and 100 μg/ml streptomycin. The proviral DNA clone of NL4-3 was obtained from the NIH AIDS Research and Reference Reagent Program. A recombinant NL4-3 virus, in which a section of the nef gene from NL4-3 was replaced with the Renilla luciferase gene, was used as a reference virus. In addition, residue Gag P373 was converted to P373S. Briefly, the recombinant virus was prepared by transfection of the altered proviral clone of NL4-3. Transfections were performed in 293T cells using LipofectAMINE PLUS from Invitrogen (Carlsbad, Calif.), according to manufacturer's instruction. The virus was titered in MT-2 cells using luciferase enzyme activity as a marker. Luciferase was quantitated using the Dual Luciferase kit from Promega (Madison, Wis.), with modifications to the manufacturer's protocol. The diluted Passive Lysis solution was pre-mixed with the re-suspended Luciferase Assay Reagent and the re-suspended Stop & Glo Substrate (2:1:1 ratio). Fifty (50) μL of the mixture was added to each aspirated well on assay plates and luciferase activity was measured immediately on a Wallac TriLux (Perkin-Elmer). Antiviral activities of inhibitors toward the recombinant virus were quantified by measuring luciferase activity in cells infected for 4-5 days with NLRluc recombinants in the presence serial dilutions of the inhibitor. Table 16 is the key for the data in Table 17.
Background: Reporter assays use an easily measured gene product as a stand-in for the process of interest.
Turning to `CC1(C)C(c2ccc(C(=O)O)cc2)=CC[C@]2(C)CN(C(=O)c3cccc(C(N)=O)c3)CC=C12` [Example 21], the EC50 was > 3 µM.
For the molecule `CC1(C)C(c2ccc(C(=O)O)cc2)=CC[C@]2(C)CN(c3ccc(-c4nnn(CCN5CCS(=O)(=O)CC5)n4)cc3)CC=C12` [Example B5], the EC50 is > 3 µM.
Turning to `CC1(C)C(c2ccc(C(=O)O)cc2)=CC[C@]2(C)CN(C(=O)c3cscc3C(=O)NCCCN3CCS(=O)(=O)CC3)CC=C12` [Example 73], the EC50 was > 3 µM.
For `CC1(C)C(c2ccc(C(=O)O)cc2)=CC[C@]2(C)CN(C(=O)c3ccc(F)c(F)c3)CC=C12` [Example 7], the EC50 was > 3 µM.
Same read-out and setting: the same measure for `CC1(C)C(c2ccc(C(=O)O)cc2)=CC[C@]2(C)CN(C(=O)c3cc(F)cc(F)c3)CC=C12` [Example 8]: > 3 µM; for `CC1(C)C(c2ccc(C(=O)O)cc2)=CC[C@]2(C)CN(C(=O)c3ccc(C(=O)NCCCN4CCS(=O)(=O)CC4)s3)CC=C12` [Example 72]: > 3 µM; for `CC1(C)C(c2ccc(C(=O)O)cc2)=CC[C@]2(C)CN(C(=O)c3cccc(F)c3)CC=C12` [Example 2]: > 3 µM.
Still for that read-out and setting: the same measure for `CC1(C)C(c2ccc(C(=O)O)cc2)=CC[C@]2(C)CN(C(=O)c3ccccc3C(=O)O)CC=C12` [Example 14]: > 3 µM; for `CN1CCN(c2cccc(C(=O)N3CC=C4C(C)(C)C(c5ccc(C(=O)O)cc5)=CC[C@]4(C)C3)c2)CC1` [Example 29]: > 3 µM; for `CN1CCC2C(C)(C)[C@H](c3ccc(C(=O)O)cc3)CC[C@]2(C)C1` (single isomer, unassigned) [Example 90]: > 3 µM.
Take `CC(=O)NCCn1c(-c2ccccc2C(=O)N2CC=C3C(C)(C)C(c4ccc(C(=O)O)cc4)=CC[C@]3(C)C2)nc2cc(C(=O)O)ccc21` [Example A294]: the EC50 was > 3 µM.
`CC(C)C[C@@H](NC(=O)OC(C)(C)C)C(=O)N1CCC(C(=O)N2CC=C3C(C)(C)[C@@H](c4ccc(C(=O)O)cc4)CC[C@]3(C)C2)(c2ccccc2)CC1` [Example 88]: the EC50 is < 0.5 µM.
Same read-out and setting: the same measure for `CC1(C)C(c2ccc(C(=O)O)cc2)=CC[C@]2(C)CN(C(=O)c3ccccc3-c3nc4cc(Cl)ccc4o3)CC=C12` [Example A332]: < 0.5 µM; for `CC1(C)C2CCN(C(=O)c3ccccc3-c3nc4ccccc4[nH]3)C[C@@]2(C)CC[C@@H]1c1ccc(C(=O)O)cc1` (stereo partly drawn) [Example 85]: < 0.5 µM.
For `CC1(C)C(c2ccc(C(=O)O)cc2)=CC[C@]2(C)CN(c3ccc(C(=O)O)cc3)CC=C12` [Example B10, (S)-4,4′-(5,5,8a-trimethyl-3,5,8,8a-tetrahydroisoquinoline-2,6(1H)-diyl)dibenzoic acid], the EC50 is > 3 µM.
Still for that read-out and setting: the same measure for `COc1ccc(OC)c2[nH]c(-c3ccccc3C(=O)N3CC=C4C(C)(C)C(c5ccc(C(=O)O)cc5)=CC[C@]4(C)C3)nc12` [Example A299]: < 0.5 µM.
Regarding `CC1(C)C(c2ccc(C(=O)O)cc2)=CC[C@]2(C)CN(C(=O)c3cncc(C(=O)O)c3)CC=C12` [Example 45], the EC50 is > 3 µM.
On the same count and under the same terms, the same measure for `CC1(C)C(c2ccc(C(=O)O)cc2)=CC[C@]2(C)CN(C(=O)c3ccccc3-c3nc4cc(F)c(F)cc4o3)CC=C12` [Example A338]: 0.5 to 3 µM; for `CC1(C)C(c2ccc(C(=O)O)cc2)=CC[C@]2(C)CN(C(=O)c3ccccc3-c3nc4cc(Cl)c(Cl)cc4[nH]3)CC=C12` [Example A265]: < 0.5 µM.
On the same count and under the same terms, the same measure for `CC(C)C[C@@H](NC(=O)OC(C)(C)C)C(=O)N1CCC(C(=O)N2CC[C@H]3C(C)(C)[C@@H](c4ccc(C(=O)O)cc4)CC[C@]3(C)C2)(c2ccccc2)CC1` [Example 86]: < 0.5 µM; for `COc1ccc2nc(-c3ccccc3C(=O)N3CC=C4C(C)(C)C(c5ccc(C(=O)O)cc5)=CC[C@]4(C)C3)oc2c1` [Example A334]: < 0.5 µM.
Take `CC1(C)C(c2ccc(C(=O)O)cc2)=CC[C@]2(C)CN(C(=O)[C@H]3C[C@@H]4C=C[C@H]3C4)CC=C12` [Example A86]: the EC50 was > 3 µM.
On the same count and under the same terms, the figure for `Cc1nc2cc(C(=O)N3CC=C4C(C)(C)C(c5ccc(C(=O)O)cc5)=CC[C@]4(C)C3)ccc2[nH]1` [Example 41] is > 3 µM.
On to `CC(C)S(=O)(=O)N1CCC(C(=O)N2CC=C3C(C)(C)C(c4ccc(C(=O)O)cc4)=CC[C@]3(C)C2)(c2ccccc2)CC1` [Example A195], for which the EC50 was < 0.5 µM.
Consider `CC1(C)C(c2ccc(C(=O)O)cc2)=CC[C@]2(C)CN(C(=O)c3cccc(CN4CCS(=O)(=O)CC4)c3)CC=C12` [Example 38], for which the EC50 was > 3 µM.
On the same count and under the same terms, the same measure for `CC1(C)C(c2ccc(C(=O)O)cc2)=CC[C@]2(C)CN(C(=O)C(=O)O)CC=C12` [Example 10]: > 3 µM.
Take `CC1(C)C(c2ccc(C(=O)O)cc2)=CC[C@]2(C)CN(C(=O)c3ccc(C(N)=O)cc3)CC=C12` [Example 22]: the EC50 is > 3 µM.
The same measure, in the same setting: the figure for `CC1(C)C(c2ccc(C(=O)O)cc2)=CC[C@]2(C)CN(C(=O)C3(c4ccc(F)cc4)CCCC3)CC=C12` [Example A111] is > 3 µM.
With `CC1(C)C(c2ccc(C(=O)O)cc2)=CC[C@]2(C)CN(C(=O)C(=O)N3CC=C4C(C)(C)C(c5ccc(C(=O)O)cc5)=CC[C@]4(C)C3)CC=C12` [Example 9], the EC50 is > 3 µM.

The test is the same for the next values; noted with them: Renilla, NL43, read-out: 10% FBS EC50, 10% FBS, numeric values.
Take `CC(C)(C)OC(=O)N1CCC(C)(C(=O)N2CC=C3C(C)(C)C(c4ccc(C(=O)O)cc4)=CC[C@]3(C)C2)CC1` [Example 48]: the EC50 was 0.27 µM.
On the same count and under the same terms, the same measure for `CC(C)(C)OC(=O)N1CCN(c2ccccc2C(=O)N2CC=C3C(C)(C)C(c4ccc(C(=O)O)cc4)=CC[C@]3(C)C2)CC1` [Example 11, (S)-4-(2-(2-(4-(tert-butoxycarbonyl)piperazin-1-yl)benzoyl)-5,5,8a-trimethyl-1,2,3,5,8,8a-hexahydroisoquinolin-6-yl)benzoic acid]: 0.46 µM.
On the same count and under the same terms, the figure for `CC(C)(C)OC(=O)N1CCC(Cc2ccccc2)(C(=O)N2CC=C3C(C)(C)C(c4ccc(C(=O)O)cc4)=CC[C@]3(C)C2)CC1` [Example 47] is 1.07 µM; for `CC1(C)C(c2ccc(C(=O)O)cc2)=CC[C@]2(C)CN(C(=O)c3ccccc3-c3nc4cc5c(cc4[nH]3)OCO5)CC=C12` [Example A298] it is 0.06 µM; for `CC1(C)C(c2ccc(C(=O)O)cc2)=CC[C@@]2(C)CN(C(=O)c3cccc4c3C(=O)c3ccccc3-4)CC=C12` [Example A30] it is 1.08 µM.
Regarding `C[C@@H](OC(C)(C)C)[C@H](NC(=O)OC(C)(C)C)C(=O)N1CCC(C(=O)N2CC=C3C(C)(C)C(c4ccc(C(=O)O)cc4)=CC[C@]3(C)C2)(c2ccccc2)CC1` [Example A185], the EC50 was 0.123 µM.
On the same count and under the same terms, the same measure for `CC1(C)C(c2ccc(C(=O)O)cc2)=CC[C@]2(C)CN(C(=O)c3ccc4cc[nH]c4c3)CC=C12` [Example 39]: 1.49 µM.
On the same count and under the same terms, the figure for `CC1(C)C(c2ccc(C(=O)O)cc2)=CC[C@]2(C)CN(C(=O)c3c(-c4ccccc4)nc4ccccn34)CC=C12` [Example A91] is 0.711 µM; for `CC(C)C1(C(=O)N2CC=C3C(C)(C)C(c4ccc(C(=O)O)cc4)=CC[C@]3(C)C2)CCN(C(=O)OC(C)(C)C)CC1` [Example 49] it is 1.18 µM; for `CC1(C)C(c2ccc(C(=O)O)cc2)=CC[C@]2(C)CN(C(=O)[C@H]3CC[C@H](N)CC3)CC=C12` [Example 52] it is 3.62 µM.
`CC1(C)C(c2ccc(C(=O)O)cc2)=CC[C@]2(C)CN(c3ccccc3-c3nnn(CCN4CCS(=O)(=O)CC4)n3)CC=C12` [Example B6]: the EC50 is 0.045 µM.
For the molecule `Cc1ncc(C)n2nc(-c3ccc4c(c3)nc(-c3ccccc3C(=O)N3CC=C5C(C)(C)C(c6ccc(C(=O)O)cc6)=CC[C@]5(C)C3)n4C)nc12` [Example A278], the EC50 stood at 4.96 µM.
With `CC1(C)C(c2ccc(C(=O)O)cc2)=CC[C@]2(C)CN(c3ncnc(N4CC=C5C(C)(C)C(c6ccc(C(=O)O)cc6)=CC[C@]5(C)C4)n3)CC=C12` [Example 75], the EC50 is 0.19 µM.
On the same count and under the same terms, the figure for `CC1(C)C(c2ccc(C(=O)O)cc2)=CC[C@]2(C)CN(C(=O)c3ccccc3-c3nc4ccccc4o3)CC=C12` [Example A325] is 0.235 µM; for `Cc1ccc2nc(-c3ccccc3C(=O)N3CC=C4C(C)(C)C(c5ccc(C(=O)O)cc5)=CC[C@]4(C)C3)oc2c1` [Example A326] it is 0.257 µM.
On the same count and under the same terms, the figure for `CC1(C)C(c2ccc(C(=O)O)cc2)=CC[C@]2(C)CN(C(=O)c3ccccc3N3CCOCC3)CC=C12` [Example 26] is 0.63 µM; for `CCOc1cccc2cc(C(=O)N3CC=C4C(C)(C)C(c5ccc(C(=O)O)cc5)=CC[C@]4(C)C3)oc12` [Example A46] it is 1.32 µM.
As to `COc1ccc(S(=O)(=O)Cc2ccccc2)cc1C(=O)N1CC=C2C(C)(C)C(c3ccc(C(=O)O)cc3)=CC[C@]2(C)C1` [Example 32], the EC50 was determined as 0.66 µM.

Still in this test, the particulars now being: read-out: 10% FBS EC50, 10% FBS, numeric values.
As to `CN1Cc2c(ccc3nc(-c4ccccc4C(=O)N4CC=C5C(C)(C)C(c6ccc(C(=O)O)cc6)=CC[C@]5(C)C4)[nH]c23)C(c2ccccc2)C1` (stereo partly drawn) [Example 101], the EC50 was 2.98 µM.
